These results are taken from patent publication US12497614B2, “Compositions and methods for editing beta-globin for treatment of hemaglobinopathies” (Vertex Pharmaceuticals Incorporated, priority 2020, dated 2025).

In test [1] the test system is HBB gene locus and mRNA transcribed from HBB in CD34+ HSPCs. In words: Editing efficiency in genomic DNA and in HBB mRNA (Example 5). Conditions: genomic DNA, 48 hours post electroporation; 1 μM or 3 μM. Type of test: cell-based, human. As for the experimental part: At 48 hours post electroporation genomic DNA was isolated from the edited cells and HDR to introduce the sickle mutation and INDEL frequencies were evaluated using next gene sequencing and computational analysis. On day 10 of differentiation, incorporation of the SCD mutation and frequency of INDELs present in mRNA transcribed from the HBB gene locus of edited cells was determined using RNA amplicon sequencing.

Test [2] deals with NBSGW mice. In words: Engraftment and persistence of gene-editing after in vivo administration of CD34+ HSPCs edited with T107 RNP, AAV.310 and Compound 984 (Example 14). Also noted: species or system mouse. To be noted: 16 weeks; T107 RNP+AAV.310 in the presence of Compound 984. As for the experimental part:
(§1) The cells were electroporated and immediately plated in medium only or medium containing Compound 984 at 3 μM. […] Genomic DNA was harvested from edited cells and used to evaluate HDR efficiency by […] as described in Example 1.
(§2) Following two days of in vitro culture, HSPCs were administered by intravenous injection to NBSGW mice at a dose of 0.5×10^6 cells per mouse. Recipient mice were treated with sublethal irradiation (100 cGy) at 1 day prior to administration of HSPCs. […] In total three independent replicates of the study were performed.
(§3) Bone marrow and peripheral blood was extracted at 16 weeks following HSPC administration and evaluated for presence of human hematopoietic cells using flow cytometry as described in Example 2. The percent chimerism (percentage of human CD45+ cells relative total cells expressing human CD45 or mouse CD45) in mouse bone marrow and peripheral blood is respectively shown in FIGS. 14A-14B.
(§4) Additionally, the lineage of human CD45+ cells was determined using markers for human B cells, T cells, myeloid cells, and HSPCs as described in Example 2.
(§5) The long term persistence of edits in the HBB gene present in HSPCs administered to each mouse cohorts was evaluated in genomic DNA extracted from bone marrow collected at 16 weeks. The frequency of donor template-encoded gene-edits in the HBB gene incorporated by HDR was quantified by NGS and is shown in FIG. 14D. […]

Assay in test [3]: as above
More on the design: species or system mouse. Conditions: T107 RNP+AAV.310 in the presence of Compound 984 (3 μM). The method, then:
as §1, §2, §3, §4, §5

Test [4] relates to NBSGW mice. Nature of the test: In vivo engraftment and persistence of gene-edits of CD34+ HSPCs edited with T107 RNP, AAV and inhibitors (Example 6). Also noted: species or system mouse. Conditions: 16 weeks, with or without inhibitor. The method, then: Following two days of in vitro culture, HSPCs were administered by intravenous injection to NBSGW mice at a dose of 0.5×10^6 cells per mouse. Recipient mice were treated with sublethal irradiation (100 cGy) at 1 day prior to administration of HSPCs.
Blood and bone marrow were extracted at 16 weeks following HSPC administration and were evaluated for presence of human hematopoietic cells using flow cytometry as described in Example 2. Additionally, the lineage of human CD45+ cells was determined using markers for human B cells, T cells, myeloid cells, and HSPCs as described in Example 2.
The long term persistence of gene-edited (in HBB gene) HSPCs was evaluated in genomic DNA extracted from mouse bone marrow collected at 16 weeks. The frequency of donor template-encoded gene-edits incorporated in HBB by HDR and the frequency of INDELs at the T107 cut site were quantified by NGS, and are shown in FIG. 7I and FIG. 7J respectively.

A further test relates to HBB locus in CD34+ HSPCs. In words: In vitro editing of HBB in CD34+ HSPCs with T223 RNP and AAV.321 (Example 9). The format is cell-based, human. To be noted: T223 RNP+AAV.321-edited cells treated with i53. The method, then:
Gene-editing of HBB was evaluated using CD34+ HSPCs that were derived and maintained in culture as described in Example 1. HSPCs were subjected to gene-editing following two days of culture. To perform gene-editing, the cells were electroporated with RNP. Specifically, 5×10^6 cells were electroporated using the Maxcyte Buffer/HSC-3 program with RNP containing 20 μg SpCas9 and 20 μg sgRNA (T223 or R02). Cells were transfected with corresponding AAV donor template at a dose of 10,000 MOI (AAV.321 or AAV.323 respectively). The effect of 53BP1 inhibition and DNA-PK inhibitions on editing with RNP+AAV was also evaluated by treating cells with […] or 1 μg i53 mRNA+1 μM Nu7441.
The cells were cultured for two days following electroporation and prior to evaluation of editing efficiency. To evaluate editing efficiency, genomic DNA was harvested from edited cells, and frequency of HDR and frequency of INDELs at the predicted gRNA cut site was evaluated as described in Example 1.

Test [5] relates to human HBB gene locus in CD34+ HSPCs. In words: In vitro editing of HBB in CD34+ HSPCs with RNP and AAV donor template; HDR and INDELs by NGS (Example 1). The format is cell-based. To be noted: T107 RNP+AAV.320 with i53 (1 μg mRNA). The method, then:
Gene-editing of HBB was evaluated in CD34+ HSPCs. […] HSPCs were maintained in culture media containing IL-3 and were incubated at 37° C. under atmospheric conditions containing 5% carbon dioxide and 4% oxygen. […] To perform gene-editing, the cells were electroporated with RNP. Specifically, 1×10^6 cells were electroporated using the Maxcyte HSC-3 program with RNP containing 20 μg SpCas9 and 20 μg sgRNA (T107 or R02). AAV donor template was administered to cells prior to electroporation. Specifically, the cells were incubated with AAV (AAV.320 or AAV.323 respectively) at a dose of 10,000 MOI for one hour prior to electroporation.
Given efficiency of HDR repair is poor due to competition with other repair pathways (e.g., the NHEJ pathway), particularly in non-dividing or slowly dividing cells such as HSPCs, editing was also evaluated following treatment with molecules that inhibit targets in the NHEJ pathway, including 53BP1 and DNA-PK. […]
To evaluate HDR editing efficiency, genomic DNA was harvested from treated cells, and the frequency of the HBB allele encoding the expected gene edit (i.e., GAA encoding glutamate at position 6 downstream the HBB start codon (“E6”) for cells transduced with AAV.323 and silent mutations for cells transduced with AAV.320) was evaluated using a PCR amplification-based assay followed by next-generating sequencing (NGS). […]

Turning to `[2H]c1nc(C)nc([2H])c1-c1cc(NC[C@@H](C)c2cccc3c(C(=O)NC)ccnc23)ncn1` [Compound 984], in test [1], the “frequency of INDELs at the T107 cut site compared to cells edited with T107 RNP+AAV.310 only” value is reported as “decreased” and the “level of HDR repair compared to cells edited with T107 RNP+AAV.310 only” value is recorded as “increased”. Moreover, the “frequency of gene-edits in mouse bone marrow vs CD34+ HSPCs prior to transplantation” value with NBSGW mice [2] is reported as “comparable”. In addition, the “frequency of gene-edits (HDR) in CD34+ HSPCs prior to transplantation” value in test [3] was “approximately 45%”. The “percent chimerism in mouse bone marrow and blood” value in the test with NBSGW mice [4] was “comparable”.
As to “i53: polypeptide inhibitor of 53BP1 (SEQ ID NO: 11), introduced as an mRNA-encoded protein (ORF SEQ ID NO: 10)”, in the test with HBB locus in CD34+ HSPCs, the “frequency of INDELs at the T223 cut site” value is given as “reduced” and the “frequency of genomic DNA incorporating the E6V gene-edit” value is recorded as “improved”. Moreover, the “HDR efficiency (donor-template-encoded gene-edit in HBB)” value in test [5] is “approximately 25%”. In addition, in the test on NBSGW mice [4], the “percent chimerism in mouse bone marrow and blood” value is “comparable”.
